# Molecular target: T1, Mdm2/p53 binding (GST-Mdm2 / His-p53) (Homo sapiens, UniProt Q00987, L33E)
# T1 construct: Mdm2 partial protein having Mdm2 amino acids at positions 25 to 108
# Assay: Mdm2/p53 binding assay (HTRF, His-p53 and GST-Mdm2)
# Details: His-p53 (aa 1-132) and GST-Mdm2 (aa 25-108, L33E) 6.25 nM each; 25°C, 1 hour; values given as ranges
# Method: A protein dilution containing 6.25 nM each of His-p53 (fusion protein of a p53 partial protein having p53 amino acids at positions 1 to 132, with a histidine protein) and GST-Mdm2 (fusion protein of an Mdm2 partial protein having Mdm2 amino acids at positions 25 to 108 with leucine residue 33 substituted by glutamic acid, with glutathione transferase) proteins was prepared using a protein buffer solution (20 mM HEPES pH 7.4, 150 mM NaCl, 0.1% BSA). This protein dilution was added in an amount of 8 μl/well to a 384-well plate (384-well low volume NBC, Corning Inc., catalog No: 3676).
# Next, a test compound was diluted with DMSO to produce a protein buffer solution containing 10% dilution, and this buffer solution was added in an amount of 4 μl/well to the plate.
# Subsequently, a solution containing an XL665-labeled anti-His antibody (HTRF monoclonal anti-6HIS antibody labeled with XL665 (catalog No: 61HISXLB), Schering/Cisbio Bioassays) and a europium (Eu)-labeled anti-GST antibody (HTRF monoclonal anti-GST antibody labeled with europium cryptate, Schering/Cisbio Bioassays, catalog No: 61GSTKLB) at concentrations of 2.5 μg/ml and 0.325 μg/ml, respectively, was prepared using an antibody diluting buffer solution (20 mM HEPES pH 7.4, 150 mM NaCl, 0.1% BSA, 0.5 M KF). These dilutions were added in an amount of 8 μl/well (total reaction solution volume: 20 μl/well). Then the plate was incubated at 25° ° C. for 1 hour.
# Time-resolved fluorescence at 620 and 665 nm was measured at an excitation wavelength of 320 nm using a plate reader (ARVOsx, PerkinElmer Co., Ltd. or PHERAstar, BMG LABTECH). Ratio (R) was calculated using the measured values (RFU 620 nm and RFU 665 nm) according to the following formula: […]
# BI: measured value at 665 nm of reaction solution (only each buffer solution) nonsupplemented with each protein, the compound, and the antibodies
# A and D: each measured value at 665 nm and 620 nm of reaction solution supplemented with only Eu-labeled anti-GST antibody solution
# The R value calculated from the well supplemented with His-p53, GST-Mdm2, the test compound, and each antibody was defined as R (sample). The R value calculated from the well supplemented with His-p53, GST-Mdm2, and each antibody but without the test compound was defined as R (control). The R value calculated from the well supplemented with GST-Mdm2 the test compound, and each antibody but without His-p53 was defined as R (background). T/C was calculated from the formula shown below. An IC50 value for Mdm2/p53 binding was calculated by sigmoid fitting.
# T1 sequence (Q00987 25-108 L33E): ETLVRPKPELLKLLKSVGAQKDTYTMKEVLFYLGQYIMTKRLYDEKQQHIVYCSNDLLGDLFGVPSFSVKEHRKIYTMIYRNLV
row,SMILES,IC50
1,"CC1(C)CCC2(CC1)N[C@@H](C(=O)N[C@H]1CC[C@@](O)(CO)CC1)[C@H](c1cccc(Cl)c1F)[C@]21C(=O)Nc2cc(Cl)ccc21 [Example 33, (3′R, 4′S,5′R)-6″-chloro-4′-(3-chloro-2-fluorophenyl)-N-[trans-4-hydroxy-4-(hydroxymethyl)cyclohexyl]-4,4-dimethyl-2″-oxo-1″,2″-dihydrodispiro[cyclohexane-1,2′-pyrrolidine-3′,3″-indole]-5′-carboxamide]",1 to 50 nM
2,"CC(=O)Nc1cc(Cl)cc([C@H]2[C@H](C(=O)N[C@H]3CC[C@H](O)CC3)NC3(CCC(C)(C)CC3)[C@@]23C(=O)Nc2cc(Cl)ccc23)c1 [Example 37, (3′R, 4′R, S′R)-4′-(3-acetamide-5-chlorophenyl)-6″-chloro-N-(trans-4-hydroxycyclohexyl)-4,4-dimethyl-2″-oxo-1″,2″-dihydrodispiro[cyclohexane-1,2′-pyrrolidine-3′,3″-indole]-5′-carboxamide]",50 to 100 nM
3,CC1(C)CCC2(CC1)N[C@@H](C(=O)N[C@H]1CC[C@](O)(CO)CC1)[C@H](c1ccnc(Cl)c1F)[C@]21C(=O)Nc2cc(Cl)ccc21 [Example 39],50 to 100 nM
4,"CC1(C)CCC2(CC1)N[C@@H](C(=O)N[C@H]1CC[C@H](c3noc(=O)[nH]3)CC1)[C@H](c1ccnc(Cl)c1F)[C@]21C(=O)Nc2cc(Cl)ccc21 [Example 41, (3′R, 4′S,5′R)-6″-chloro-4′-(2-chloro-3-fluoropyridin-4-yl)-4,4-dimethyl-2″-oxo-N-[trans-4-(5-oxo-4,5-dihydro-1,2,4-oxadiazol-3-yl)cyclohexyl]-1″,2″-dihydrodispiro[cyclohexane-1,2′-pyrrolidine-3′,3″-indole]-5′-carboxamide]",1 to 50 nM
5,"CC1(C)CCC2(CC1)N[C@@H](C(=O)N[C@H]1CO[C@H](CO)[C@@H](O)C1)[C@H](c1cccc(Cl)c1F)[C@]21C(=O)Nc2cc(Cl)ccc21 [Example 42, (3′R, 4′S,5′R)-6″-chloro-4′-(3-chloro-2-fluorophenyl)-N-[(3R,5S,6R)-5-hydroxy-6-(hydroxymethyl)tetrahydro-2H-pyran-3-yl]-4,4-dimethyl-2″-oxo-1″,2″-dihydrodispiro[cyclohexane-1,2′-pyrrolidine-3′,3″-indole]-5′-carboxamide]",1 to 50 nM
6,"CO[C@H]1C[C@@H](NC(=O)[C@@H]2NC3(CCC(C)(C)CC3)[C@@]3(C(=O)Nc4cc(Cl)ccc43)[C@H]2c2cccc(Cl)c2F)CO[C@@H]1CO [Example 43, (3′R, 4′S,5′R)-6″-chloro-4′-(3-chloro-2-fluorophenyl)-N-[(3R,5S,6R)-6-(hydroxymethyl)-5-methoxytetrahydro-2H-pyran-3-yl]-4,4-dimethyl-2″-oxo-1″,2″-dihydrodispiro[cyclohexane-1,2′-pyrrolidine-3′,3″-indole]-5′-carboxamide]",100 to 500 nM
7,CC(=O)N(CCO)C[C@@H]1CC[C@@H](NC(=O)[C@@H]2NC3(CCC(C)(C)CC3)[C@@]3(C(=O)Nc4cc(Cl)ccc43)[C@H]2c2ccnc(Cl)c2F)CO1 [Example 44],1 to 50 nM
8,"CO[C@H]1C[C@@H](NC(=O)[C@@H]2NC3(CCC(C)(C)CC3)[C@@]3(C(=O)Nc4cc(Cl)ccc43)[C@H]2c2ccnc(Cl)c2F)CO[C@@H]1CO [Example 45, (3′R, 4′S,5′R)-6″-chloro-4′-(2-chloro-3-fluoropyridin-4-yl)-N-[(3R,5S,6R)-6-(hydroxymethyl)-5-methoxytetrahydro-2H-pyran-3-yl]-4,4-dimethyl-2″-oxo-1″,2″-dihydrodispiro[cyclohexane-1,2′-pyrrolidine-3′,3″-indole]-5′-carboxamide]",50 to 100 nM
9,"CC1(C)CCC2(CC1)N[C@@H](C(=O)N[C@@H]1CC[C@@H](C(C)(C)O)OC1)[C@H](c1cccc(Cl)c1F)[C@]21C(=O)Nc2cc(Cl)ccc21 [Example 46, (3′R, 4′S,5′R)-6″-chloro-4′-(3-chloro-2-fluorophenyl)-N-[(3R,6S)-6-(1-hydroxy-1-methylethyl)tetrahydro-2H-pyran-3-yl]-4,4-dimethyl-2′-oxo-1″; 2″-dihydrodispiro[cyclohexane-1,2′-pyrrolidine-3′,3″-indole]-5′-carboxamide]",1 to 50 nM
10,"CC1(C)CCC2(CC1)N[C@@H](C(=O)N[C@H]1CC[C@H](c3noc(=O)[nH]3)CC1)[C@H](c1cccc(Cl)c1F)[C@]21C(=O)Nc2cc(Cl)ccc21 [Example 48, (3′S,4′S,5′R)-6′-chloro-4′-(3-chloro-2-fluorophenyl)-4,4-dimethyl-2″-oxo-N-[trans-4-(5-oxo-4,5-dihydro-1,2,4-oxadiazol-3-yl)cyclohexyl]-1″,2″-dihydrodispiro[cyclohexane-1,2′-pyrrolidine-3′,3″-indole]-5′-carboxamide]",1 to 50 nM
11,"CC1(C)CCC2(CC1)N[C@@H](C(=O)N[C@@H]1CC[C@@H](c3nnco3)OC1)[C@H](c1ccnc(Cl)c1F)[C@]21C(=O)Nc2nc(Cl)ccc21 [Example 50, (3′R, 4′S,5′R)-6″-chloro-4′-(2-chloro-3-fluoropyridin-4-yl)-4,4-dimethyl-N-[(3R,6S)-6-(1,3,4-oxadiazol-2-yl)tetrahydro-2H-pyran-3-yl]-2″-oxo-1″,2″-dihydrodispiro[cyclohexane-1,2′-pyrrolidine-3′,3″-pyrrolo[2,3-b]pyridine]-3′-carboxamide]",50 to 100 nM
12,"CC1(C)CCC2(CC1)N[C@@H](C(=O)N[C@@H]1CC[C@@H](c3nnco3)OC1)[C@H](c1cccc(Cl)c1F)[C@]21C(=O)Nc2nc(Cl)ccc21 [Example 52, (3′R, 4′S,5′R)-6″-chloro-4′-(3-chloro-2-fluorophenyl)-4,4-dimethyl-N-[(3R,6S)-6-(1,3,4-oxadiazol-2-yl)tetrahydro-2H-pyran-3-yl]-2″-oxo-1″,2″-dihydrodispiro[cyclohexane-1,2′-pyrrolidine-3′,3″-pyrrolo[2,3-b]pyridine]-5′-carboxamide]",50 to 100 nM
13,"CC1(C)CCC2(CC1)N[C@@H](C(=O)N[C@@H]1CC[C@@H](c3n[nH]c(=O)o3)OC1)[C@H](c1cccc(Cl)c1F)[C@]21C(=O)Nc2nc(Cl)ccc21 [Example 55, (3′R, 4′S,5′R)-6″-chloro-4′-(3-chloro-2-fluorophenyl)-4,4-dimethyl-2″-oxo-N-[(3R,6S)-6-(5-oxo-4,5-dihydro-1,3,4-oxadiazol-2-yl)tetrahydro-2H-pyran-3-yl]-1″,2″-dihydrodispiro[cyclohexane-1,2′-pyrrolidine-3′,3″-pyrrolo[2,3-b]pyridine]-5′-carboxamide]",1 to 50 nM
14,"CC1(C)CCC2(CC1)N[C@@H](C(=O)N[C@@H]1CC[C@@H](c3n[nH]c(=O)o3)OC1)[C@H](c1ccnc(Cl)c1)[C@]21C(=O)Nc2cc(Cl)ccc21 [Example 56, (3′R, 4′R, 5′R)-6″-chloro-4′-(2-chloropyridin-4-yl)-4,4-dimethyl-2″-Oxo-N-[(3R,6S)-6-(5-oxo-4,5-dihydro-1,3,4-oxadiazol-2-yl)tetrahydro-2H-pyran-3-yl]-1″,2″-dihydrodispiro[cyclohexane-1,2′-pyrrolidine-3′,3″-indole]-5′-carboxamide]",1 to 50 nM
15,"CO[C@H]1C[C@@H](NC(=O)[C@@H]2NC3(CCC(C)(C)CC3)[C@@]3(C(=O)Nc4nc(Cl)ccc43)[C@H]2c2cccc(Cl)c2F)CO[C@@H]1CO [Example 58, (3′R, 4′S,5′R)-6″-chloro-4′-(3-chloro-2-fluorophenyl)-N-[(3R,5S,6R)-6-(hydroxymethyl)-5-methoxytetrahydro-2H-pyran-3-yl]-4,4-dimethyl-2″-oxo-1″,2″-dihydrodispiro[cyclohexane-1,2′-pyrrolidine-3′,3″-pyrrolo[2,3-b]pyridine]-5′-carboxamide]",50 to 100 nM

# Source: patent US12545685B2 (Daiichi Sankyo Company, Limited, priority 2011, dated 2026)
